Laboratory results as given in article PMC11696576, “Next generation thiazolyl ketone inhibitors of cytosolic phospholipase A2 α for targeted cancer therapy” (Nature Communications, 2025).
Several values for one entry are separate records, joined by “and”; a condition that tells them apart may be missing. Identical values can stand only once. Like-named read-outs stand apart in the source and are kept apart here.

Tests used:
[1] = molecular target: T1, human calcium-independent GVIA iPLA2 (Homo sapiens, UniProt O60733); parameters: method as in PMID 25152071; conditions: 0.091 mole fraction; previously published data ref 19; cited from earlier work
T1 sequence (O60733 1-806): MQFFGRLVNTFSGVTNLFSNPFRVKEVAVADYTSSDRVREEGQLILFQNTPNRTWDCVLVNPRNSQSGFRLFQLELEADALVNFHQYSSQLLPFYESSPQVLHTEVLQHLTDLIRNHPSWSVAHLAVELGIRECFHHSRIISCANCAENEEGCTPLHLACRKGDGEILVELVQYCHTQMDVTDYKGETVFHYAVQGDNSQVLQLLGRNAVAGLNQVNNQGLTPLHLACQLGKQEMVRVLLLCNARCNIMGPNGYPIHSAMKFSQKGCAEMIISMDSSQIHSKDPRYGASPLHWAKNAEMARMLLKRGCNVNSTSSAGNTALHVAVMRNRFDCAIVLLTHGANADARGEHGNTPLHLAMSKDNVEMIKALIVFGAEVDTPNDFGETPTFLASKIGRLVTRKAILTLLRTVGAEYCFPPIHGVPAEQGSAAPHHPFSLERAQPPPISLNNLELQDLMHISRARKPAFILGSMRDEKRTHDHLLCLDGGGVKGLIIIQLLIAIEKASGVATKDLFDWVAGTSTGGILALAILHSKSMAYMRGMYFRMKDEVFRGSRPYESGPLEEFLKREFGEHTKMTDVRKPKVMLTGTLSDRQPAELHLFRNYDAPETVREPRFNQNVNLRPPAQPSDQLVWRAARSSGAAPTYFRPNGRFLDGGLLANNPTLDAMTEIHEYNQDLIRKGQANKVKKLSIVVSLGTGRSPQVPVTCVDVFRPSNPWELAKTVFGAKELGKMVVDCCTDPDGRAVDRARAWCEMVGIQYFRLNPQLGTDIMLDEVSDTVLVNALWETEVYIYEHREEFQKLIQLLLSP

[2] = molecular target: T2, secreted GV sPLA2 (Homo sapiens, UniProt P39877); parameters: method as in PMID 25152071; conditions: 0.091 mole fraction; previously published data ref 19; cited from earlier work
T2 sequence (P39877 21-138): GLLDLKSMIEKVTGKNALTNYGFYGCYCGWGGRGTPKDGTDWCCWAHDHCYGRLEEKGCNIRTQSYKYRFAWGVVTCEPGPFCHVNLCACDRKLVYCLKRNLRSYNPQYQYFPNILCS

[3] = system: isolated human PBMCs; assay: eicosanoid release from A23187-stimulated PBMCs (ELISA); assay type: cell-based; parameters: 6-Keto PGF1a / 12-HETE: unit not given here; conditions: for LTB4 level, PBMCs / PGE2 level, PBMCs / TxB2 level, PBMCs: A23187, individual replicate; for 6-Keto PGF1a: A23187 stimulated; for IC50: Homo sapiens, PBMC, 0.25 h, 30 µM A23187 15 min
Description: In PBMCs, the calcium ionophore A23187 stimulated the release of PGE2, TXB2, LTB4, 6-keto prostaglandin F1α (PGF1α), and 12-HETE.
PBMCs were isolated from buffy coats using Lymphoprep as described by the manufacturer ([…] Technologies, Vancouver, Canada). Red blood cells were lysed and removed using RBC lysis buffer (Roche, Basel, Switzerland) and the remaining cells were resuspended in 10 mL of RPMI-1640 supplemented with 5% FBS. The TC20 automated cell counter (BIO-RAD, Hercules, California, USA) was used to count the number of cells and check the viability by staining with trypan blue (0.4%) (NanoEnTek, Waltham, MA, USA). For experiments, 5 × 10^5 cells were seeded in 0.5 mL in 24 well plates with RPMI medium supplemented with 5% FBS, 0.3 mg/mL glutamine, and 0.1 mg/mL gentamicin. Cells were preincubated with inhibitors for 2 h before incubating with 30 µM Ca^2+ ionophore A23187 for 15 min to activate cPLA2α. After incubation, the supernatant was obtained by centrifugation at 5992 × g for 10 min at 4° and stored at −80 °C until assayed for PGE2, LTB4, TxB2, 6-Keto PGF1α, and 12S-HETE using enzyme-linked immunosorbent assays (ELISAs) (Cayman #514435, Cayman #10009292, Cayman #501020, Cayman #15210, and Enzo Lifesciences #ADI-900-050). After an overnight hybridization, the enzymatic conversion of substrate was read at OD420 nm using a Cytation 5 multimode platereader (Biotek Instruments, Winooski, VT, USA). Standard curves fit using 4-parameter logistic regression in myassays.com were used to calculate eicosanoid concentrations.

[4] = system: MV-4-11 cells; assay: cell viability, resazurin assay, MV-4-11; assay type: cell-based, human; conditions: for cell viability relative to 0 µM = 100 (Figure S7b): MV-4-11, rep1-4, listed as AVX420
From the text: Bjørn Tore Gjertsen (University of Bergen, Norway). […] The cell lines were not authenticated.
Figure S7. Sensitivity of cell lines derived from hematological malignancies. a. cell viability expressed as relative light units ( RLU) is plotted for all cell lines in the screen that were de-rived from hematological malignancies. b. corresponding IC50 values calculated by non-linear regression analysis. c. Cell viability assessed by resazurin assays in MV-4-11 and HL-60 cells.
Data were normalized to the vehicle-treated control (100%) and are the mean of 4 biological replicates ±stdev (MV-4-11) and 5 biological replicates ±stdev (HL-60), Non-linear regres- […]

[5] = system: Jurkat E6.1 cells; assay: cell death, PI exclusion and flow cytometry, time course (Figure S9b); assay type: cell-based, human; parameters: unit not given here; conditions: replicates, listed as AVX420

Question: Which “GVIA iPLA2 % Inhib” value [1] does the source give for `CCCCCCCCc1ccc(OCC(=O)c2nc(C(=O)OC)cs2)cc1` [GK470] here?
Answer: 86%

Question: And the “GV sPLA2 % Inhib” value [2]?
Answer: 41%

Question: Which results are given for `CCCCCCCOc1ccc(OCC(=O)c2nc(C(=O)OC)cs2)cc1` [GK420]?
Answer: LTB4 level, PBMCs ([3]; 0.5 µM): 429.9 pg/mL and 749.3 pg/mL and 255.6 pg/mL and 605.5 pg/mL; PGE2 level, PBMCs ([3]; 0.5 µM): 169.2 pg/mL and 38.5 pg/mL and 267.8 pg/mL and 309 pg/mL; TxB2 level, PBMCs ([3]; 0.5 µM): 8408.2 pg/mL and 1252.3 pg/mL and 13129.8 pg/mL and 13753.8 pg/mL; 6-Keto PGF1a ([3]; 0.5 µM): 21.6 and 26.4; LTB4 level, PBMCs ([3]; 1 µM): 370.9 pg/mL and 289.7 pg/mL and 718.4 pg/mL and 239.1 pg/mL; PGE2 level, PBMCs ([3]; 1 µM): 247.2 pg/mL and 134.2 pg/mL and 36.8 pg/mL and 244.2 pg/mL; TxB2 level, PBMCs ([3]; 1 µM): 11110.6 pg/mL and 8481.1 pg/mL and 1330.2 pg/mL and 14838.7 pg/mL; 6-Keto PGF1a ([3]; 1 µM): 16.6 and 27.5; LTB4 level, PBMCs ([3]; 2.5 µM): 144.2 pg/mL and 219 pg/mL and 387.5 pg/mL and 190 pg/mL; PGE2 level, PBMCs ([3]; 2.5 µM): 238.2 pg/mL and 102.2 pg/mL and 66 pg/mL and 196.8 pg/mL; TxB2 level, PBMCs ([3]; 2.5 µM): 7528.6 pg/mL and 7919.2 pg/mL and 1078.1 pg/mL and 10138.3 pg/mL; 6-Keto PGF1a ([3]; 2.5 µM): 15.1 and 17.9; LTB4 level, PBMCs ([3]; 5 µM): 107.5 pg/mL and 125.8 pg/mL and 244.5 pg/mL and 111.7 pg/mL; PGE2 level, PBMCs ([3]; 5 µM): 149.4 pg/mL and 71.6 pg/mL and 38.8 pg/mL and 141.2 pg/mL; TxB2 level, PBMCs ([3]; 5 µM): 4591 pg/mL and 3235.3 pg/mL and 764.8 pg/mL and 7035.5 pg/mL; 6-Keto PGF1a ([3]; 5 µM): 16.9 and 21.1; LTB4 level, PBMCs ([3]; 10 µM): 64.7 pg/mL and 93.8 pg/mL and 115.3 pg/mL and 64.3 pg/mL; PGE2 level, PBMCs ([3]; 10 µM): 129 pg/mL and 52.7 pg/mL and 30.5 pg/mL and 67 pg/mL; TxB2 level, PBMCs ([3]; 10 µM): 2621.7 pg/mL and 1488.5 pg/mL and 633.4 pg/mL and 3277.7 pg/mL; IC50 ([3]; PBMCs, read-out: IC50 LTB4 inhibition): 0.317 µM; IC50 ([3]; PBMCs, read-out: IC50 PGE2 inhibition): 1.1 µM; IC50 ([3]; PBMCs, read-out: IC50 TXB2 inhibition): 2.2 µM; effect on 6-keto PGF1α and 12-HETE ([3]; PBMCs, A23187, IC50 values could not be calculated): tendency to suppress; IC50 ([4]; Homo sapiens, MV4-11, resazurin assay): 5.7 µM; cell viability relative to 0 µM = 100 (Figure S7b) ([4]; 0.00306 µM): 107.974 and 94.1556 and 88.3103 and 111.814; cell viability relative to 0 µM = 100 (Figure S7b) ([4]; 0.00919 µM): 108.045 and 93.3168 and 91.3448 and 113.05; cell viability relative to 0 µM = 100 (Figure S7b) ([4]; 0.02757 µM): 114.954 and 104.137 and 83.3442 and 127.148; cell viability relative to 0 µM = 100 (Figure S7b) ([4]; 0.08272 µM): 119.708 and 98.9766 and 68.867 and 129.045; cell viability relative to 0 µM = 100 (Figure S7b) ([4]; 0.24815 µM): 113.432 and 105.146 and 76.1961 and 124.847; cell viability relative to 0 µM = 100 (Figure S7b) ([4]; 0.74444 µM): 108.976 and 63.5816 and 66.7499 and 99.3411; cell viability relative to 0 µM = 100 (Figure S7b) ([4]; 2.23333 µM): 103.119 and 55.0214 and 81.5625 and 89.0387; cell viability relative to 0 µM = 100 (Figure S7b) ([4]; 6.7 µM): 80.6879 and 58.6991 and 52.7781 and 45.3319; cell viability relative to 0 µM = 100 (Figure S7b) ([4]; 10 µM): 48.2149 and 41.1505 and 41.4878 and 26.408; cell viability relative to 0 µM = 100 (Figure S7b) ([4]; 30 µM): 40.7033 and 23.5083 and 29.7689 and 20.683; PI Negative (Figure S9b) ([5]; 1h): 92 and 90; PI Positive (Figure S9b) ([5]; 1h): 8 and 10; PI Negative (Figure S9b) ([5]; 2h): 88 and 92; PI Positive (Figure S9b) ([5]; 2h): 12 and 8; PI Negative (Figure S9b) ([5]; 4h): 94 and 93 and 92; PI Positive (Figure S9b) ([5]; 4h): 6 and 7 and 8; PI Negative (Figure S9b) ([5]; 8h): 91 (2×) and 87 and 88; PI Positive (Figure S9b) ([5]; 8h): 9 (2×) and 13 and 12; PI Negative (Figure S9b) ([5]; 12h): 80 and 83 and 82; PI Positive (Figure S9b) ([5]; 12h): 20 and 17 and 18; PI Negative (Figure S9b) ([5]; 16h): 70 and 75 and 71; PI Positive (Figure S9b) ([5]; 16h): 30 and 25 and 29; PI Negative (Figure S9b) ([5]; 24h): 65 and 67 and 73; PI Positive (Figure S9b) ([5]; 24h): 35 and 33 and 27
